The values that follow come from patent US11572590B2, “Methods for evaluating tumor cell spheroids using 3D microfluidic cell culture device” (Dana-Farber Cancer Institute, Inc., priority 2017, dated 2023).

Assay in all cases: SelectScreen Kinase Profiling, single point inhibition and IC50 for off-target kinases
What all share (type): biochemical

Experiment [1] deals with off-target kinases (Homo sapiens, UniProt P43250). As to conditions: GRK6, ZLYTE, ATP Km app.
Experiment [2] concerns the target T1, off-target kinases (Homo sapiens, UniProt Q06418).
T1 sequence (Q06418 41-890): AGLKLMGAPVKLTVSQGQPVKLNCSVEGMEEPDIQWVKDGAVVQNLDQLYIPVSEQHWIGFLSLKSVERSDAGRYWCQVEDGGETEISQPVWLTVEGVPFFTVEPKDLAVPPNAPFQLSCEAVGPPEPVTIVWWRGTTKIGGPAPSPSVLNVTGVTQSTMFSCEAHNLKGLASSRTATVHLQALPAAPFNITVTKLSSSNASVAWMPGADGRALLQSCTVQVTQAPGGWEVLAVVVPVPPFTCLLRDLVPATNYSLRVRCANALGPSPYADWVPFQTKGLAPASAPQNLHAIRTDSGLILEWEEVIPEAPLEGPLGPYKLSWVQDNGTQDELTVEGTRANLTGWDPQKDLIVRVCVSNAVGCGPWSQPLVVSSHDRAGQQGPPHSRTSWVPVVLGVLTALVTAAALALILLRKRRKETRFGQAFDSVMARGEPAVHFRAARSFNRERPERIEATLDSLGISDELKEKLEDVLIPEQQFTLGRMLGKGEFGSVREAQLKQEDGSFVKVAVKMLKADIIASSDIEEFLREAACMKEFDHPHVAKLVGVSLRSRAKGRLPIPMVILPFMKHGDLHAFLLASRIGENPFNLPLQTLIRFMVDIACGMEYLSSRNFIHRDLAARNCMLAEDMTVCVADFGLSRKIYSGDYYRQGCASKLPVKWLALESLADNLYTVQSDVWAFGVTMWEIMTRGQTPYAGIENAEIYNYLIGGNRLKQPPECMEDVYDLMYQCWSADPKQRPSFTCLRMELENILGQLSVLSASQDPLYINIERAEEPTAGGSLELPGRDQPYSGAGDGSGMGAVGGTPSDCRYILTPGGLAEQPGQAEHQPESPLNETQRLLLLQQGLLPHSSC
The note with it: TYRO3 (RSE), ZLYTE, ATP Km app.

Experiment [3] has as its target T2, off-target kinases (Homo sapiens, UniProt Q08881).
T2 sequence (Q08881 1-620): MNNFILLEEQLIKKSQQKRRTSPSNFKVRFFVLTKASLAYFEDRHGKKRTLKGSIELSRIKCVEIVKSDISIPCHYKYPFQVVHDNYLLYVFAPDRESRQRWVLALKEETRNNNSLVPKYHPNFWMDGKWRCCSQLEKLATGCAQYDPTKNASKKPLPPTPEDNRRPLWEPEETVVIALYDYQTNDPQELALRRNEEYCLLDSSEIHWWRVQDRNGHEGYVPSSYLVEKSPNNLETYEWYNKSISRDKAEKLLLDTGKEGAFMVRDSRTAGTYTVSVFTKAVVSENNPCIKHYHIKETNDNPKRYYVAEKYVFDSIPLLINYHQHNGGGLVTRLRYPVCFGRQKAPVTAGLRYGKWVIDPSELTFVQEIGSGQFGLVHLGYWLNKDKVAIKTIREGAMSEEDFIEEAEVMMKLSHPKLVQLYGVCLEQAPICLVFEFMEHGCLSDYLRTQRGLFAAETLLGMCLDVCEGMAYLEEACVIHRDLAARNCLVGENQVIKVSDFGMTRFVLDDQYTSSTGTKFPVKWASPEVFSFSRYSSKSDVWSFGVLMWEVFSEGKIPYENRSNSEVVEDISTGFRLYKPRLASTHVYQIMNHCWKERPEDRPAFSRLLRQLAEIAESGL
The note with it: ITK, ZLYTE, ATP Km app.

For experiment [4], the target named is off-target kinases (Homo sapiens, UniProt Q86UX6).
Experiment [5] deals with off-target kinases (Homo sapiens, UniProt Q9HCP0). The note with it: CSNK1G1 (CK1 gamma 1); Cmpd1 1000 μM; ATP Km app; ZLYTE.

Where two headings read alike, the source gives them in different places.

Chain of off-target kinases (Homo sapiens, UniProt Q9HCP0) (Q9HCP0 whole entry): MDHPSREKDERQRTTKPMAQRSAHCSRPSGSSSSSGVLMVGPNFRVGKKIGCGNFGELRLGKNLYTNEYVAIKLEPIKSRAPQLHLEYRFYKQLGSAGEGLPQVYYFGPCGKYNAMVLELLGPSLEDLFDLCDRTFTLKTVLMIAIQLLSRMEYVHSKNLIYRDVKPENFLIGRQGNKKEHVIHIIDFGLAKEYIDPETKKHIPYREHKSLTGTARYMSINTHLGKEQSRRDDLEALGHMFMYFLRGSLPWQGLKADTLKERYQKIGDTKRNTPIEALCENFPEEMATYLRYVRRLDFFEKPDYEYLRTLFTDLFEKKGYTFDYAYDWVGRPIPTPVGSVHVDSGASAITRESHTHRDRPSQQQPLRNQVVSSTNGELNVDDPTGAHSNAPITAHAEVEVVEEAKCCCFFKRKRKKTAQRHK
Chain of off-target kinases (Homo sapiens, UniProt Q86UX6) (Q86UX6 whole entry): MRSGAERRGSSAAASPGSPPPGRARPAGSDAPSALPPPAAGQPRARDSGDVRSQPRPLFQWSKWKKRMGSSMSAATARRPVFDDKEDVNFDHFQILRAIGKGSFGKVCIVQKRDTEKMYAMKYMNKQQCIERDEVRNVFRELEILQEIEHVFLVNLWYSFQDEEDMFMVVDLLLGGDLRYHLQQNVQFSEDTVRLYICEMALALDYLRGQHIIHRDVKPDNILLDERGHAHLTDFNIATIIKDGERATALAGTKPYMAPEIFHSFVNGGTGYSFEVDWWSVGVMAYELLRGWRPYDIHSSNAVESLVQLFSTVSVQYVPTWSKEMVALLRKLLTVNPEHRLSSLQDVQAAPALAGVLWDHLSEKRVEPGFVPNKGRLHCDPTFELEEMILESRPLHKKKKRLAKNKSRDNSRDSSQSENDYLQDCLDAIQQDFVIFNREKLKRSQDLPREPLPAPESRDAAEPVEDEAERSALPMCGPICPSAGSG
Chain of off-target kinases (Homo sapiens, UniProt P43250) (P43250 whole entry): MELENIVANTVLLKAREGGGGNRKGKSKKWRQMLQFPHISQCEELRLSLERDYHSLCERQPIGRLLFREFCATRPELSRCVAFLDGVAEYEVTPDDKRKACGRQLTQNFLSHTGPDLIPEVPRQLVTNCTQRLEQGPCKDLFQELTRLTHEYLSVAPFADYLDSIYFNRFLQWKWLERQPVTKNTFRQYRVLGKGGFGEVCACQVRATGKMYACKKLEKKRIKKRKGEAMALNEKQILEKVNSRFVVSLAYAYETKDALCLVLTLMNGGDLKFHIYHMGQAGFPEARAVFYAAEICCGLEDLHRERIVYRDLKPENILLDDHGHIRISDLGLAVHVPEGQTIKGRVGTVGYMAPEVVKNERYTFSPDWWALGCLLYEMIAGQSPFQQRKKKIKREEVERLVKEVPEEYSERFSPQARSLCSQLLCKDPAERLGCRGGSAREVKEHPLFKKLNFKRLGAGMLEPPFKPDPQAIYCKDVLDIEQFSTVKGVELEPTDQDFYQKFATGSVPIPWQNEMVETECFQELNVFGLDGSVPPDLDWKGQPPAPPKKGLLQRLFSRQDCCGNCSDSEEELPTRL

Take `N#Cc1cc(-c2ncnc(Nc3ccc(N4CCN(C5COC5)CC4)cc3)n2)ccc1OC1CCOCC1` [Compound 1, 5-(4-((4-(4-(oxetan-3-yl)piperazin-1-yl)phenyl)amino)-1,3,5-triazin-2-yl)-2-((tetrahydro-2H-pyran-4-yl)oxy)benzonitrile]: the inhibition in experiment [1] (read-out: % Inhibition 1) was found to be 2%; in experiment [1] (read-out: % Inhibition 2), 2%; in experiment [1] (read-out: % Inhibition Avg), 2%; in experiment [2] (read-out: % Inhibition 1), 42%; in experiment [2] (read-out: % Inhibition 2), 39%; in experiment [2] (read-out: % Inhibition Avg), 41%. In addition, the inhibition in experiment [3] (read-out: % Inhibition 1) is 37%; in experiment [3] (read-out: % Inhibition 2) it was 32%; in experiment [3] (read-out: % Inhibition Avg) it was 34%; in experiment [4] (STK32C (YANK3), LanthaScreen Binding, read-out: % Inhibition 1) it was -4%; in experiment [4] (STK32C (YANK3), LanthaScreen Binding, read-out: % Inhibition 2), 3%; in experiment [4] (read-out: % Inhibition Avg), -1%. The “% Inhibition 1” value in experiment [5] is listed as −14%. Moreover, the “% Inhibition 2” value in experiment [5] was 2%. For the same compound, in experiment [5], the “% Inhibition Avg” value is listed as −6%.

One may read the inhibition as the relative decrease from the control value, in per cent.
